Measured values published in paper PMC7961380, “A Systematic Study of the In Vitro Pharmacokinetics and Estimated Human In Vivo Clearance of Indole and Indazole-3-Carboxamide Synthetic Cannabinoid Receptor Agonists Detected on the Illicit Drug Market” (Molecules, 2021).
“And” between values parts separate entries of the source, which are not always exact repeats. Equal entries are not always repeated. Where two headings read alike, the source gives them in different places.

Assays:
[1] = Short-term plasma stability with and without esterase inhibitors; details: human, pH 7.4, Parent Compound Remaining (%), 3 h, 37 °C
[2] = Plasma protein binding by equilibrium dialysis; assay type: in vitro ADME, human; details: 37 °C; for fraction unbound at 5 h, 10 µg mL^−1: human, pooled human plasma, pH 7.4, equilibrium dialysis 5 h
[3] = Metabolic stability, pooled human liver microsome incubations; details: for Predicted In Vivo Hepatic Clearance, CLH: from pHLM CLint, well-stirred model with plasma fu, Q 21 mL min^−1 kg^−1; for CLint scaled at 0.5 µM / half-life at 0.5 µM: human, microsomes; for CLint scaled at 0.5 µM: pH 7.4, Intrinsic clearance; for half-life at 0.5 µM: pH 7.4, T1/2 (min), pHLM 0.5 mg mL^−1, 0.5 µM, NADPH, 37 °C; for half-life at 0.5 µM / Microsomal Intrinsic Clearance, CLint micr: n ≥ 3 ± SD
[4] = test system: pooled human cryopreserved hepatocytes (pHHeps); assay: Metabolic stability, pooled human cryopreserved hepatocyte incubations; details: for Predicted In Vivo Hepatic Clearance, CLH: from pHHeps CLint, well-stirred model with plasma fu, Q 21 mL min^−1 kg^−1
[5] = as above; details: human, hepatocytes; for CLint scaled at 0.5 µM: Intrinsic clearance, pHHeps, alternative hepatocyte cell density 99x10^6 hepatocytes per gram liver
[6] = Esterase Inhibitors, pH 7.4, BNPP and PMSF 500 µM each
[7] = plasma, No Esterase Inhibitors, pH 7.4, pooled human plasma
[8] = 10 µg mL^−1, read-out: PPB (%) (converted)
[9] = plasma, read-out: Fraction Unbound (fu)
[10] = pHLM, alternative microsomal scaling factor 32 mg microsomal protein per gram liver
[11] = pHLM, alternative microsomal scaling factor 45 mg microsomal protein per gram liver
[12] = pHLM, scaling factor 32 mg microsomal protein per gram liver
[13] = pHLM, scaling factor 45 mg microsomal protein per gram liver
[14] = pHHeps, 99x10^6 hepatocytes per gram liver
[15] = T1/2 (min), pHHeps 0.25 million cells mL^−1, 0.5 µM, 37 °C, n ≥ 3 ± SD

Row | SMILES | remaining at 3 h, 5 µM [1, 6] [%] | remaining at 3 h, 5 µM [1, 7] [%] | Predicted In Vivo Hepatic Clearance, CLH [3] | Hepatic extraction ratio, EH ([3]; from pHLM incubations) | CLint scaled at 0.5 µM [3, 10] [mL/min/kg] | CLint scaled at 0.5 µM [3, 11] [mL/min/kg] | half-life at 0.5 µM [3] [min] | % parent compound remaining, Average ([3]; pHLM, 3 min) [%] | % parent compound remaining, Average ([3]; pHLM, 6 min) [%] | % parent compound remaining, Average ([3]; pHLM, 9 min) [%] | % parent compound remaining, Average ([3]; pHLM, 15 min) [%] | % parent compound remaining, Average ([3]; pHLM, 30 min) [%] | Microsomal Intrinsic Clearance, CLint micr ([3]; pHLM) | Hepatic extraction ratio, EH [3, 12] | Predicted in vivo hepatic clearance, CLH [3, 12] [mL/min/kg] | Predicted in vivo hepatic clearance, CLH [3, 13] [mL/min/kg] | Predicted In Vivo Hepatic Clearance, CLH [4] | Hepatic extraction ratio, EH ([4]; from pHHeps incubations) | Hepatic extraction ratio, EH [4, 14] | Predicted in vivo hepatic clearance, CLH [4, 14] [mL/min/kg] | further results
1 | COC(=O)[C@@H](NC(=O)c1nn(CCCCCF)c2ccccc12)C(C)C [(S)-5F-AMB-PINACA (10), methyl [1-(5-fluoropentyl)-1H-indazole-3-carbonyl]valinate] | 89.8 ± 1.5 | 93 ± 6.1 | 17.79 mL/min/kg and 17.79 ± 0.20 mL/min/kg | 0.85 and 0.85 ± 0.010 | 1230 | 1730 ± 133 | 0.9 ± 0.07 | 10.6 | 1.8 | 0.0 | 0.0 | 0.0 | 1.494 ± 0.115 mL min^−1 mg Microsomal Protein^−1 | 0.77 ± 0.013 | 16.21 | 17.35 ± 0.22 | 18.25 mL/min/kg and 18.25 ± 0.12 mL/min/kg | 0.87 and 0.87 ± 0.006 | 0.86 ± 0.006 | 18.06 ± 0.13 | fraction unbound at 5 h, 10 µg mL^−1 [2, 8]: 0.058; fraction unbound at 5 h, 10 µg mL^−1 [2, 9]: 0.058 ± 0.0008; Hepatic extraction ratio, EH [3, 13]: 0.83 ± 0.011; % parent compound remaining, Average ([4]; pHHeps, 3 min): 60.1%; % parent compound remaining, Average ([4]; pHHeps, 6 min): 23.2%; % parent compound remaining, Average ([4]; pHHeps, 9 min): 11.4%; % parent compound remaining, Average ([4]; pHHeps, 15 min): 3.0%; % parent compound remaining, Average ([4]; pHHeps, 30 min): 0.3%; % parent compound remaining, Average ([4]; pHHeps, 45 min): 0.1%; % parent compound remaining, Average ([4]; pHHeps, 60 min): 0.2%; CLint scaled at 0.5 µM [5]: 2220 ± 115 mL/min/kg; half-life at 0.5 µM [5, 15]: 3.2 ± 0.16 min
2 | COC(=O)[C@@H](NC(=O)c1cn(CCCCCF)c2ccccc12)C(C)(C)C [(S)-5F-MDMB-PICA (3), methyl 2-[1-(5-fluoropentyl)-1H-indole-3-carboxamido]-3,3-dimethylbutanoate] | 99.5 ± 5.8 | 97.3 ± 6.4 | 8.01 ± 0.84 mL/min/kg | 0.38 ± 0.04 | 128 | 181 ± 31.6 | 9 ± 1.4 | 63.9 | 56.3 | 49.2 | 32.1 | 12.8 | 0.156 ± 0.027 mL min^−1 mg Microsomal Protein^−1 | 0.27 ± 0.034 | 5.75 | 7.27 ± 0.81 | 7.87 ± 0.58 mL/min/kg | 0.37 ± 0.027 | 0.36 ± 0.027 | 7.49 ± 0.56 | fraction unbound at 5 h, 10 µg mL^−1 [2, 8]: 0.062; fraction unbound at 5 h, 10 µg mL^−1 [2, 9]: 0.062 ± 0.0007; Hepatic extraction ratio, EH [3, 13]: 0.35 ± 0.038; % parent compound remaining, Average ([4]; pHHeps, 3 min): 96.7%; % parent compound remaining, Average ([4]; pHHeps, 6 min): 91.2%; % parent compound remaining, Average ([4]; pHHeps, 9 min): 90.7%; % parent compound remaining, Average ([4]; pHHeps, 15 min): 77.0%; % parent compound remaining, Average ([4]; pHHeps, 30 min): 57.6%; % parent compound remaining, Average ([4]; pHHeps, 45 min): 42.5%; % parent compound remaining, Average ([4]; pHHeps, 60 min): 30.9%; CLint scaled at 0.5 µM [5]: 188 mL/min/kg; half-life at 0.5 µM [5, 15]: 38 ± 4.6 min
3 | COC(=O)[C@@H](NC(=O)c1nn(CCCCCF)c2ccccc12)C(C)(C)C [(S)-5F-MDMB-PINACA (2), methyl 2-[1-(5-fluoropentyl)-1H-indazole-3-carboxamido]-3,3-dimethylbutanoate] | 97 ± 1.1 | 92.5 ± 10.2 | 4.76 ± 0.17 mL/min/kg | 0.23 ± 0.008 | 171 | 240 ± 11 | 6.7 ± 0.31 | 69.9 | 51.7 | 39.0 | 22.7 | 6.1 | 0.207 ± 0.009 mL min^−1 mg Microsomal Protein^−1 | 0.15 ± 0.006 | 3.18 | 4.22 ± 0.15 | 8.05 ± 1.15 mL/min/kg | 0.38 ± 0.055 | 0.37 | 7.67 | PPB (%) ([2]; equilibrium dialysis 5 h, 10 µg mL^−1): 97.8 ± 0.19%; Fraction Unbound (fu) ([2]; equilibrium dialysis 5 h, plasma): 0.022 ± 0.0019; Hepatic extraction ratio, EH [3, 13]: 0.20 ± 0.007; half-life ([4]; pHHep lot HUE50-P): 13.2 ± 3.4 min; % parent compound remaining, Average ([4]; pHHeps, 3 min): 77.3%; % parent compound remaining, Average ([4]; pHHeps, 6 min): 66.9%; % parent compound remaining, Average ([4]; pHHeps, 9 min): 57.5%; % parent compound remaining, Average ([4]; pHHeps, 15 min): 48.3%; % parent compound remaining, Average ([4]; pHHeps, 30 min): 21.1%; % parent compound remaining, Average ([4]; pHHeps, 45 min): 10.6%; % parent compound remaining, Average ([4]; pHHeps, 60 min): 5.6%; CLint scaled at 0.5 µM [5]: 559 mL/min/kg; half-life at 0.5 µM [5, 15]: 13 ± 3.3 min; half-life at 0.5 µM ([5]; half-life, pHHep lot HUE50-N): 13.3 ± 3.4 min
4 | CC(C)[C@H](NC(=O)c1nn(Cc2ccc(F)cc2)c2ccccc12)C(N)=O [(S)-AB-FUBINACA (8), N-(1-amino-3-methyl-1-oxobutan-2-yl)-1-(4-fluorobenzyl)-1H-indazole-3-carboxamide] | 103 ± 2.5 | 104 ± 1.1 | 0.34 mL/min/kg and 0.34 ± 0.09 mL/min/kg | 0.02 and 0.02 ± 0.004 | 10 | 14.1 | 118 ± 28 | 87.3 | 87.3 | 85.0 | 84.2 | 79.6 | 0.012 ± 0.003 mL min^−1 mg Microsomal Protein^−1 | 0.01 ± 0.003 | 0.21 ± 0.05 | 0.29 ± 0.07 | 2.06 ± 0.58 mL/min/kg | 0.10 ± 0.028 | 0.09 ± 0.026 | 1.92 ± 0.55 | fraction unbound at 5 h, 10 µg mL^−1 [2, 8]: 0.021; fraction unbound at 5 h, 10 µg mL^−1 [2, 9]: 0.021 ± 0.0044; Hepatic extraction ratio, EH [3, 13]: 0.01 ± 0.004; % parent compound remaining, Average ([4]; pHHeps, 3 min): 93.3%; % parent compound remaining, Average ([4]; pHHeps, 6 min): 86.0%; % parent compound remaining, Average ([4]; pHHeps, 9 min): 85.5%; % parent compound remaining, Average ([4]; pHHeps, 15 min): 85.4%; % parent compound remaining, Average ([4]; pHHeps, 30 min): 72.4%; % parent compound remaining, Average ([4]; pHHeps, 45 min): 69.5%; % parent compound remaining, Average ([4]; pHHeps, 60 min): 66.6%; CLint scaled at 0.5 µM [5]: 101 ± 32 mL/min/kg; half-life at 0.5 µM [5, 15]: 76 ± 24 min
5 | C=CCCCn1cc(C(=O)N[C@H](C(=O)OC)C(C)C)c2ccccc21 [(S)-AMB-4en-PICA (7), methyl 3-methyl-2-[(1-pent-4-enylindole-3-carbonyl)amino] butanoate] | 95.6 ± 6.8 | 92.6 ± 8.3 | 9.29 ± 0.89 mL/min/kg | 0.44 ± 0.042 | 194 | 273 | 6 ± 1 | 67.6 | 49.5 | 36.3 | 18.0 | 3.0 | 0.236 ± 0.042 mL min^−1 mg Microsomal Protein^−1 | 0.33 ± 0.038 | 6.86 | 8.51 | 15.56 ± 1.24 mL/min/kg | 0.74 ± 0.059 | 0.73 ± 0.061 | 15.25 ± 1.28 | fraction unbound at 5 h, 10 µg mL^−1 [2, 8]: 0.053; fraction unbound at 5 h, 10 µg mL^−1 [2, 9]: 0.053 ± 0.0037; % parent compound remaining, Average ([4]; pHHeps, 3 min): 68.4%; % parent compound remaining, Average ([4]; pHHeps, 6 min): 54.6%; % parent compound remaining, Average ([4]; pHHeps, 9 min): 33.2%; % parent compound remaining, Average ([4]; pHHeps, 15 min): 19.4%; % parent compound remaining, Average ([4]; pHHeps, 30 min): 6.5%; % parent compound remaining, Average ([4]; pHHeps, 45 min): 1.9%; % parent compound remaining, Average ([4]; pHHeps, 60 min): 0.6%; CLint scaled at 0.5 µM [5]: 1120 mL/min/kg; half-life at 0.5 µM [5, 15]: 6.9 ± 2.1 min
